{"source": "patent US6596712B2", "about": "“Treatment of carcinomas using squalamine in combination with other anti-cancer agents or modalities” (Genaera Corporation, priority 1996, dated 2003)", "key": {"[1]": {"assay": "Tissue distribution after i.v. administration", "format": "in vivo, mouse", "details": "two hours after i.v. administration", "source_text": "In addition to these squalamine half-life tests, applicants have tested to ascertain the distribution of squalamine in a mouse after intravenous administration. FIG. 7 illustrates the distribution of squalamine in mouse tissue two hours after i.v. administration. […] The test results shown in FIG. 7 indicate good squalamine distribution. […] In treating brain tumors, it is believed that the squalamine acts on the endothelial cells in the brain, and in this way, it need not cross the brain/blood barrier"}, "LNCaP cells": {"tested_on": "LNCaP cells", "assay": "LNCaP xenograft post-orchiectomy (Example 6)", "format": "in vivo, athymic mice", "details": "20 mg/kg/day for six to ten weeks from castration", "source_text": "LNCaP cells admixed with Matrigelm were implanted subcutaneously in 52 athymic mice. Those that developed measurable tumors and sufficient elevations in serum prostate specific antigen (“PSA”) (measured using a standard commercially available kit such as from Abbott Diagnostics (St. Louis, Mo.)) underwent orchiectomy. Subsequent to castration, these animals were distributed among the four groups (1-4) outlined below: and an additional control cohort of mice which were castrated but never treated with squalamine.\nIn the majority of animals, PSA levels fell to zero at time of castration. By three weeks they began to rebound and continued to rise steadily until the animals succumbed or were sacrificed. In these same mice, tumor size tended to plateau at time of orchiectomy, before beginning to increase in size correspondingly with PSA rebound. The serum PSA curve and tumor volume measurements from two members of this last control cohort are illustrated in FIG. 15a and b, respectively.\nTen mice began treatment with squalamine concomitant with the fall in PSA after castration (Group 1). Of these, three never experienced a post-orchiectomy PSA nadir, and one experienced an early death, of unknown etiology. Six animals, however, were treated with squalamine (at 20 mg/kg/day) for a range of six to ten weeks. […]"}, "NHE": {"tested_on": "NHE", "assay": "Direct addition to PS 120 fibroblasts during measurement of exchanger activity", "format": "cell-based", "details": "no pretreatment", "source_text": "Direct addition of squalamine to PS 120 fibroblasts during measurement of the exchanger activity had no effect."}, "NHE1": {"target": "NHE1 (Homo sapiens, UniProt P19634)", "sequence (P19634 whole entry)": "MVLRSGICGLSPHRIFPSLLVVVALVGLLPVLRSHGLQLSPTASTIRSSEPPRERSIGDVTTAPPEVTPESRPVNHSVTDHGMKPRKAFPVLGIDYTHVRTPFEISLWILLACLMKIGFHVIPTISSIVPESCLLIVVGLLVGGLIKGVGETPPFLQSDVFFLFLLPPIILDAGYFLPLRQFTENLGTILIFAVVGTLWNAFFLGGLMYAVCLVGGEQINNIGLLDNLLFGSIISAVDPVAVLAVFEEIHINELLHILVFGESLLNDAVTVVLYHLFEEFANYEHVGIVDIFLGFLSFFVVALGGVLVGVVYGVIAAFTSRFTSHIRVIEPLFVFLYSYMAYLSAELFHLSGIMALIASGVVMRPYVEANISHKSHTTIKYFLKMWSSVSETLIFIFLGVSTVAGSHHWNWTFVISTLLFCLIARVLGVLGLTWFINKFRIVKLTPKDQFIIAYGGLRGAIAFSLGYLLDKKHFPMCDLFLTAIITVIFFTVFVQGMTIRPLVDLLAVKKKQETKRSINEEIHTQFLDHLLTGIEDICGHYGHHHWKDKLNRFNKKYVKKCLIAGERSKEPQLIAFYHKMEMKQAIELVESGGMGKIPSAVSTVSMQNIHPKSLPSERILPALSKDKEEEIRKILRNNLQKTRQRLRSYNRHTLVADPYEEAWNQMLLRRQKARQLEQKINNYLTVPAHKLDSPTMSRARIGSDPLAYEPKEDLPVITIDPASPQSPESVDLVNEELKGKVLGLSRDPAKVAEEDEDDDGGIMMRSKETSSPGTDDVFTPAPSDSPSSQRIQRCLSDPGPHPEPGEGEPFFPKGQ", "assay": "NHE activity in PS 120 fibroblasts transfected with human NHE1", "format": "cell-based", "design": "expressed in transfected cells; host or cells: PS 120 NHE-deficient fibroblasts", "details": "7 μg/ml squalamine; acid loaded cells", "protocol": "The following describes the test used to determine that squalamine inhibits NHE3, but not NHE1 or NHE2. NHE deficient fibroblast cells (PS 120) transfected with an individual human NHE gene were loaded with a pH sensitive dye 2′7′-bis(2-carboxyethyl)-5,6-carboxyfluorescein (BCECF). NHE activity was measured by spectrofluorometric methods using this dye and by amiloride sensitive isotopic ^22Na^+cellular uptake. The cells were acidified by exposure to ammonium chloride in the absence of sodium to eliminate sodium and deactivate the proton pumps. The ammonium chloride was washed out by exposing the cells to tetramethyl ammonium chloride in bicarbonate free medium. […] Sodium then was added back at various concentrations (see the abscissa of FIGS. 5a and 5b) to drive the antiporters (human NHE3 in FIG. 5a and human NHE1 in FIG. 5b). The antiporters were driven at different rates, as evidenced by the cellular pH change rate, depending on the amount of sodium added."}, "[2]": {"tested_on": "bovine retinal endothelial cells not treated with VEGF", "assay": "Growth of endothelial cells not treated with VEGF", "format": "cell-based", "details": "24 and 48 hours; up to 30 μg/ml", "protocol": "In conducting this in vitro analysis, the following cell lines were tested: (a) bovine retinal endothelial cells; (b) 9L and C6 rat glioma cells; (c) human H80 glioma cells; and (d) VX2 rabbit carcinoma cells (the same type as the tumors implanted in the rabbit corneal micropocket assay test described above). The endothelial mitogen which was used in this analysis was VEGF at a concentration of 20 ng/ml.\nThe cells were allowed to attach overnight to tissue culture plates containing an optimized growth media. Following attachment, the cells were exposed to solvent only or 5 to increasing concentrations of squalamine (0, 10, 20, 30, 60, and 90 μg squalamine/ml). Cell growth was counted daily for three days using a Coulter Counter. A total of 10,000 cells per well were plated and each experimental concentration was tested in quadruplicate. The results were then averaged. The bovine retinal endothelial cells were grown and treated in an identical manner to the other cell lines, […]\nPercentage endothelial cell growth inhibition (%I) was determined by the following equation: [formula]"}, "[3]": {"tested_on": "Human androgen dependent LNCaP cells", "assay": "LNCaP xenograft with hormonal ablation (Example 7)", "format": "in vivo, athymic mice", "protocol": "Human androgen dependent LNCaP cells (2×10^6 cells/flank in both flanks) were implanted subcutaneously with an equal volume of Matrigel™ in forty athymic mice. These animals were followed with periodic bleedings until serum human PSA levels exceeded 100 ng/mL and tumor volume measurements exceeded 1000 mm^3 (approximately six weeks after implantation). All animals were then surgically castrated and were randomized into five treatment groups with 8-10 animals per group. One group of animals was not treated further (controls), while a second group immediately began daily intraperitoneal injection of 20 mg/kg/day squalamine (five days per week with a two day respite). A third group of animals began to receive squalamine (20 mg/kg/day squalamine, five days per week with a two day respite) when their serum human PSA levels reached values of 4-10 ng/mL. A fourth group of mice began squalamine treatment (20 mg/kg/day squalamine, five days per week with a two day respite)when serum human PSA values reached 20-40 ng/mL, and a fifth group began squalamine treatment when serum human PSA levels reached 100 ng/mL.\nSimilarly, the serum human PSA levels fell to undetectable levels with a nadir at two weeks after castration, but by week three the serum human PSA levels began to rise in all control animals. […] For animals treated with squalamine concomitant with the fall in human PSA after castration, six of ten animals were treated for 6-10 weeks. Three mice in this group never experienced a post-orchiectomy PSA nadir, and one mouse experienced an early death of unknown etiology. The remaining six animals in this group experienced a post-orchiectomy PSA nadir of less than 1 ng/mL and maintained this negligible level for the duration of squalamine therapy.\nTissue histology was carried out on the tumor masses (or the site of tumor implantation, in the instance of the animals which underwent successful squalamine treatment) to examine the distribution of integrins in these tissues. […] Thus, part of the mechanism by which squalamine successfully alters LNCaP tumor growth is by interfering with cellular integrin expression that is associated with tumor aggressiveness."}, "[4]": {"details": "tissue histology after successful squalamine treatment"}}}
{"smiles": "CC(C)[C@@H](CC[C@@H](C)[C@H]1CC[C@H]2[C@@H]3[C@H](O)C[C@H]4C[C@@H](NCCCNCCCCN)CC[C@]4(C)[C@H]3CC[C@]12C)OS(=O)(=O)O", "note": "[Squalamine, squalamine]", "values": [{"measurement": "distribution in mouse tissue", "setting": "[1]", "result": "most of the squalamine concentrating in the liver and the small intestine"}, {"measurement": "squalamine in brain tissue", "setting": "[1]", "result": "not much squalamine is present in brain tissue"}, {"measurement": "tumor masses", "setting": "LNCaP cells", "result": "tended to diminish and, eventually, disappear"}, {"measurement": "effect of direct addition during measurement of exchanger activity", "setting": "NHE", "result": "no effect"}, {"measurement": "effect on human NHE1 antiporter (pH change rate)", "setting": "NHE1", "result": "no effective difference in the pH change rate"}, {"measurement": "cell proliferation by endothelial cells not treated with VEGF", "setting": "[2]", "result": "statistically unaffected"}, {"measurement": "post-orchiectomy PSA nadir", "setting": "[3]; 20 mg/kg/day i.p. five days per week, 6-10 weeks from castration, six animals", "result": "less than 1 ng/mL"}, {"measurement": "tumor masses", "setting": "[3]; 20 mg/kg/day i.p. from castration", "result": "eventually disappeared in all six animals"}, {"measurement": "expression of the integrin α6β4", "setting": "[3]; [4]", "result": "increase"}, {"measurement": "expression of the integrin αvβ3", "setting": "[3]; [4]", "result": "reduction in the expression"}]}
